Test results taken from ChEMBL document CHEMBL1649584, “Overexpression of the naturally occurring blaOXA-51 gene in Acinetobacter baumannii mediated by novel insertion sequence ISAba9” (2009).
Converted amounts (≈) assume the structure as drawn.

Tests used:
Type in all cases: functional
[1] = test system: Acinetobacter baumannii; assay: Antimicrobial activity against Acinetobacter baumannii isolate Ab11 overexpressing beta-lactamase OXA-51 gene mediated by novel insertion sequence ISAba9
[2] = test system: Acinetobacter baumannii; assay: Antimicrobial activity against Acinetobacter baumannii isolate Ab133 overexpressing beta-lactamase OXA-51 gene mediated by novel insertion sequence ISAba9
[3] = test system: Acinetobacter baumannii; assay: Antimicrobial activity against Acinetobacter baumannii isolate Ab150 overexpressing beta-lactamase OXA-51 gene mediated by novel insertion sequence ISAba9
[4] = test system: Acinetobacter baumannii; assay: Antimicrobial activity against Acinetobacter baumannii isolate Ab168 overexpressing beta-lactamase OXA-51 gene mediated by novel insertion sequence ISAba9
[5] = test system: Acinetobacter baumannii; assay: Antimicrobial activity against Acinetobacter baumannii isolate Ab12 overexpressing beta-lactamase OXA-51 gene mediated by novel insertion sequence ISAba9
[6] = test system: Acinetobacter baumannii; assay: Antimicrobial activity against Acinetobacter baumannii isolate Ab30 overexpressing beta-lactamase OXA-51 gene mediated by novel insertion sequence ISAba9
[7] = test system: Acinetobacter baumannii; assay: Antimicrobial activity against Acinetobacter baumannii isolate Ab58 overexpressing beta-lactamase OXA-51 gene mediated by novel insertion sequence ISAba9
[8] = test system: Acinetobacter baumannii; assay: Antimicrobial activity against Acinetobacter baumannii isolate Ab177 overexpressing beta-lactamase OXA-51 gene mediated by novel insertion sequence ISAba9
[9] = test system: Acinetobacter baumannii; assay: Antimicrobial activity against Acinetobacter baumannii isolate Ab33 overexpressing beta-lactamase OXA-51 gene mediated by novel insertion sequence ISAba9
[10] = test system: Acinetobacter baumannii; assay: Antimicrobial activity against Acinetobacter baumannii isolate Ab63 overexpressing beta-lactamase OXA-51 gene mediated by novel insertion sequence ISAba9
[11] = test system: Acinetobacter baumannii; assay: Antimicrobial activity against Acinetobacter baumannii isolate Ab91 overexpressing beta-lactamase OXA-51 gene mediated by novel insertion sequence ISAba9
[12] = test system: Acinetobacter baumannii; assay: Antimicrobial activity against Acinetobacter baumannii isolate Ab153 overexpressing beta-lactamase OXA-51 gene mediated by novel insertion sequence ISAba9
[13] = test system: Acinetobacter baumannii; assay: Antimicrobial activity against Acinetobacter baumannii isolate Ab185 overexpressing beta-lactamase OXA-51 gene mediated by novel insertion sequence ISAba9
[14] = test system: Acinetobacter baumannii; assay: Antimicrobial activity against Acinetobacter baumannii isolate Ab108 overexpressing beta-lactamase OXA-51 gene mediated by novel insertion sequence ISAba9
[15] = test system: Acinetobacter baumannii; assay: Antimicrobial activity against Acinetobacter baumannii isolate Ab114 overexpressing beta-lactamase OXA-51 gene mediated by novel insertion sequence ISAba9
[16] = test system: Acinetobacter baumannii; assay: Antimicrobial activity against Acinetobacter baumannii isolate Ab181 overexpressing beta-lactamase OXA-51 gene mediated by novel insertion sequence ISAba9
[17] = test system: Acinetobacter baumannii; assay: Antimicrobial activity against Acinetobacter baumannii isolate Ab2 overexpressing beta-lactamase OXA-51 gene mediated by novel insertion sequence ISAba9
[18] = test system: Acinetobacter baumannii; assay: Antimicrobial activity against Acinetobacter baumannii isolate Ab5 overexpressing beta-lactamase OXA-51 gene mediated by novel insertion sequence ISAba9
[19] = test system: Acinetobacter baumannii; assay: Antimicrobial activity against Acinetobacter baumannii isolate Ab23 overexpressing beta-lactamase OXA-51 gene mediated by novel insertion sequence ISAba9
[20] = test system: Acinetobacter baumannii; assay: Antimicrobial activity against Acinetobacter baumannii isolate Ab3 overexpressing beta-lactamase OXA-51 gene mediated by novel insertion sequence ISAba9

SMILES	MIC [1] [µg/mL]	MIC [2] [µg/mL]	MIC [3] [µg/mL]	MIC [4] [µg/mL]	MIC [5] [µg/mL]	MIC [6] [µg/mL]	MIC [7] [µg/mL]	MIC [8] [µg/mL]	MIC [9] [µg/mL]	MIC [10] [µg/mL]	MIC [11] [µg/mL]	MIC [12] [µg/mL]	MIC [13] [µg/mL]	MIC [14] [µg/mL]	MIC [15] [µg/mL]	MIC [16] [µg/mL]	MIC [17] [µg/mL]	MIC [18] [µg/mL]	MIC [19] [µg/mL]	MIC [20] [µg/mL]
C[C@@H](O)[C@H]1C(=O)N2C(C(=O)O)=C(SCCNC=N)C[C@H]12 [IMIPENEM ANHYDROUS]	64 (≈ 214 µM)	8 (≈ 26.7 µM)	16 (≈ 53.4 µM)	12 (≈ 40.1 µM)	64 (≈ 214 µM)	64 (≈ 214 µM)	16 (≈ 53.4 µM)	8 (≈ 26.7 µM)	64 (≈ 214 µM)	16 (≈ 53.4 µM)	16 (≈ 53.4 µM)	16 (≈ 53.4 µM)	24 (≈ 80.2 µM)	16 (≈ 53.4 µM)	16 (≈ 53.4 µM)	32 (≈ 107 µM)	4 (≈ 13.4 µM)	64 (≈ 214 µM)	64 (≈ 214 µM)	8 (≈ 26.7 µM)
C[C@@H](O)[C@H]1C(=O)N2C(C(=O)O)=C(S[C@@H]3CN[C@H](C(=O)N(C)C)C3)[C@H](C)[C@H]12 [MEROPENEM]	64 (≈ 167 µM)	8 (≈ 20.9 µM)	16 (≈ 41.7 µM)	12 (≈ 31.3 µM)	64 (≈ 167 µM)	64 (≈ 167 µM)	16 (≈ 41.7 µM)	8 (≈ 20.9 µM)	64 (≈ 167 µM)	16 (≈ 41.7 µM)	16 (≈ 41.7 µM)	16 (≈ 41.7 µM)	24 (≈ 62.6 µM)	16 (≈ 41.7 µM)	16 (≈ 41.7 µM)	32 (≈ 83.4 µM)	4 (≈ 10.4 µM)	64 (≈ 167 µM)	64 (≈ 167 µM)	8 (≈ 20.9 µM)
